Target: T1, CXCR7 (Homo sapiens, UniProt P25106)
T1 construct: host or cells: CHO-K1 (PathHunter CHO-K1 CXCR7 b-arrestin cell line, stably transfected)
Assay: PathHunter CHO-K1 CXCR7 b-arrestin recruitment assay (CXCR7 agonistic activity)
Type: cell-based
Conditions: PathHunter CHO-K1 CXCR7 b-arrestin cell line
Method in brief: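 Stable CHO-K1 line with C-terminally ProLink-tagged CXCR7 and β-arrestin 2–EA fusion; β-arrestin recruitment restores β-gal activity, read by chemiluminescence after 1 h RT detection. Cells seeded 24 h, starved in OPTIMEM 3–4 h, exposed to compounds 90 min at 37 °C in HBSS/HEPES/BSA. Geometric-mean EC50 from repeated measurements.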

T1 sequence (P25106 whole entry): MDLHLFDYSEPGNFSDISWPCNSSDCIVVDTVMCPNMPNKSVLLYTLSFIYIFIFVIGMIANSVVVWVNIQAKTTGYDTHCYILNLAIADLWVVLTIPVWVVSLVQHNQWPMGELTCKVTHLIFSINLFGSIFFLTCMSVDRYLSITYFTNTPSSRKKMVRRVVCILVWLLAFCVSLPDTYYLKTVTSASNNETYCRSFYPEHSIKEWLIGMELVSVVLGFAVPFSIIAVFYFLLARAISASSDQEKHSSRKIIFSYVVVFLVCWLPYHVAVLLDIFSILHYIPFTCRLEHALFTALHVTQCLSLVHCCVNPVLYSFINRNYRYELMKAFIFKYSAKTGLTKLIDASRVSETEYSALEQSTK
T1 sequence (P32121 whole entry partner): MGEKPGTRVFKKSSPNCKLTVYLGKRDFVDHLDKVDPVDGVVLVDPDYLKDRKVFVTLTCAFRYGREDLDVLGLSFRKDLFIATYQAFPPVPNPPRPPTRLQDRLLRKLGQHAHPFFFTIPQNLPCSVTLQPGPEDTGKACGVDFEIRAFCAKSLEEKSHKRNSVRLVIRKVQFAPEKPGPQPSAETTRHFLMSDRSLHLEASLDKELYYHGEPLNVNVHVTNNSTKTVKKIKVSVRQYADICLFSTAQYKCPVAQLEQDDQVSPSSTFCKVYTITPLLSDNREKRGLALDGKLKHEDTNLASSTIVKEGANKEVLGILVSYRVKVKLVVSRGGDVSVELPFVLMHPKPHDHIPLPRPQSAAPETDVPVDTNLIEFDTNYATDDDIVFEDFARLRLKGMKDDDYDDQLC

| Structure (SMILES) | EC50 |
| --- | --- |
| CNCCN(Cc1ncccc1C(F)(F)F)C(=O)CNc1cccc2c1CCN(C(=O)C(C)C)C2 [compound 412, 2-(2-Isobutyryl-1,2,3,4-tetrahydro-isoquinolin-5-ylamino)-N-(2-methylamino-ethyl)-N-(3-trifluoromethyl-pyridin-2-ylmethyl)-acetamide] | 0.02 µM |
| CNCCN(Cc1ncccc1C(F)(F)F)C(=O)CNc1cccc2c1CCN(C(=O)C1CCC1)C2 [compound 414, 2-(2-Cyclobutanecarbonyl-1,2,3,4-tetrahydro-isoquinolin-5-ylamino)-N-(2-methylamino-ethyl)-N-(3-trifluoromethyl-pyridin-2-ylmethyl)-acetamide] | 0.037 µM |
| CNCCN(Cc1ncccc1C(F)(F)F)C(=O)CNc1cccc2c1CCN(C(=O)C(C)(C)C)C2 [compound 415] | 0.178 µM |
| CNCCN(Cc1ncccc1C(F)(F)F)C(=O)CNc1cccc2c1CCN(C(=O)CC(C)C)C2 [compound 416] | 0.086 µM |
| CNCCN(Cc1ncccc1C(F)(F)F)C(=O)CNc1cccc2c1CCN(C(=O)CC(C)(C)C)C2 [compound 418] | 0.148 µM |
| CCOC(=O)N1CCc2c(cccc2NCC(=O)N(CCNC)Cc2ncccc2C(F)(F)F)C1 [compound 420, 5-({[(2-Methylamino-ethyl)-(3-trifluoromethyl-pyridin-2-ylmethyl)-carbamoyl]-methyl}-amino)-3,4-dihydro-1H-isoquinoline-2-carboxylic acid ethyl ester] | 0.021 µM |
| C#CCOC(=O)N1CCc2c(cccc2NCC(=O)N(CCNC)Cc2ncccc2C(F)(F)F)C1 [compound 421, 5-({[(2-Methylamino-ethyl)-(3-trifluoromethyl-pyridin-2-ylmethyl)-carbamoyl]-methyl}-amino)-3,4-dihydro-1H-isoquinoline-2-carboxylic acid prop-2-ynyl ester] | 0.029 µM |
| C=CCOC(=O)N1CCc2c(cccc2NCC(=O)N(CCNC)Cc2ncccc2C(F)(F)F)C1 [compound 422, 5-({[(2-Methylamino-ethyl)-(3-trifluoromethyl-pyridin-2-ylmethyl)-carbamoyl]-methyl}-amino)-3,4-dihydro-1H-isoquinoline-2-carboxylic acid allyl ester] | 0.033 µM |
| CCCOC(=O)N1CCc2c(cccc2NCC(=O)N(CCNC)Cc2ncccc2C(F)(F)F)C1 [compound 423] | 0.079 µM |
| CNCCN(Cc1ncccc1C(F)(F)F)C(=O)CNc1cccc2c1CCN(C(=O)OC(C)C)C2 [compound 424] | 0.06 µM |
| CNCCN(Cc1ncccc1C(F)(F)F)C(=O)CNc1cccc2c1CCN(C(=O)OCCF)C2 [compound 425, 5-({[(2-Methylamino-ethyl)-(3-trifluoromethyl-pyridin-2-ylmethyl)-carbamoyl]-methyl}-amino)-3,4-dihydro-1H-isoquinoline-2-carboxylic acid 2-fluoro-ethyl ester] | 0.027 µM |
| CNCCN(Cc1ncccc1C(F)(F)F)C(=O)CNc1cccc2c1CCN(C(=O)OCC(C)C)C2 [compound 426] | 0.074 µM |
| CNCCN(Cc1ncccc1C(F)(F)F)C(=O)CNc1cccc2c1CCN(C(=O)OCCOC)C2 [compound 427] | 0.106 µM |
| CNCCN(Cc1ncccc1C(F)(F)F)C(=O)CNc1cccc2c1CCN(C(=O)OCC(C)(C)C)C2 [compound 428] | 0.12 µM |
| CCCCNC(=O)N1CCc2c(cccc2NCC(=O)N(CCNC)Cc2ncccc2C(F)(F)F)C1 [compound 431] | 0.12 µM |
| CNCCN(Cc1ncccc1C(F)(F)F)C(=O)CNc1cccc2c1CCN(C(=O)NC(C)(C)C)C2 [compound 432, 5-({[(2-Methylamino-ethyl)-(3-trifluoromethyl-pyridin-2-ylmethyl)-carbamoyl]-methyl}-amino)-3,4-dihydro-1H-isoquinoline-2-carboxylic acid tert-butylamide] | 0.042 µM |
| CNCCN(Cc1ncccc1C(F)(F)F)C(=O)CNc1cccc2c1CCN(C(=O)NC1CCCCC1)C2 [compound 433] | 0.166 µM |
| O=C(CNc1cccc2c1CCN(CC1CC1)C2)N(CCN1CCNCC1)Cc1ccccc1C(F)(F)F [compound 438, 2-(2-Cyclopropylmethyl-1,2,3,4-tetrahydro-isoquinolin-5-ylamino)-N-(2-piperazin-1-yl-ethyl)-N-(2-trifluoromethyl-benzyl)-acetamide] | 0.015 µM |
| O=C(CNc1cccc2c1CCN(CC1CC1)C2)N(Cc1ccccc1C(F)(F)F)C1CCNCC1 [compound 440, 2-(2-Cyclopropylmethyl-1,2,3,4-tetrahydro-isoquinolin-5-ylamino)-N-piperidin-4-yl-N-(2-trifluoromethyl-benzyl)-acetamide] | 0.015 µM |
| CCN1CCc2cccc(NCC(=O)N(CCNC)Cc3ccccc3)c2C1 [compound 443] | 0.147 µM |
| CCN1CCc2cccc(NCC(=O)N(CCNC)Cc3ccccc3C(F)(F)F)c2C1 [compound 444, 2-(2-Ethyl-1,2,3,4-tetrahydro-isoquinolin-8-ylamino)-N-(2-methylamino-ethyl)-N-(2-trifluoromethyl-benzyl)-acetamide] | 0.015 µM |

Next, values leading:

| EC50 | Structure (SMILES) |
| --- | --- |
| 0.01 µM | CNCCN(Cc1ncccc1C(F)(F)F)C(=O)CNc1cccc2c1CCN(C(C)=O)C2 [compound 408, 2-(2-Acetyl-1,2,3,4-tetrahydro-isoquinolin-5-ylamino)-N-(2-methylamino-ethyl)-N-(3-trifluoromethyl-pyridin-2-ylmethyl)-acetamide] |
| 0.008 µM | CCC(=O)N1CCc2c(cccc2NCC(=O)N(CCNC)Cc2ncccc2C(F)(F)F)C1 [compound 409, N-(2-Methylamino-ethyl)-2-(2-propionyl-1,2,3,4-tetrahydro-isoquinolin-5-ylamino)-N-(3-trifluoromethyl-pyridin-2-ylmethyl)-acetamide] |
| 0.005 µM | CNCCN(Cc1ncccc1C(F)(F)F)C(=O)CNc1cccc2c1CCN(C(=O)C1CC1)C2 [compound 410, 2-(2-Cyclopropanecarbonyl-1,2,3,4-tetrahydro-isoquinolin-5-ylamino)-N-(2-methylamino-ethyl)-N-(3-trifluoromethyl-pyridin-2-ylmethyl)-acetamide] |
| 0.015 µM | CCCC(=O)N1CCc2c(cccc2NCC(=O)N(CCNC)Cc2ncccc2C(F)(F)F)C1 [compound 411, 2-(2-Butyryl-1,2,3,4-tetrahydro-isoquinolin-5-ylamino)-N-(2-methylamino-ethyl)-N-(3-trifluoromethyl-pyridin-2-ylmethyl)-acetamide] |
| 0.008 µM | CNCCN(Cc1ncccc1C(F)(F)F)C(=O)CNc1cccc2c1CCN(C(=O)COC)C2 [compound 413, 2-[2-(2-Methoxy-acetyl)-1,2,3,4-tetrahydro-isoquinolin-5-ylamino]-N-(2-methylamino-ethyl)-N-(3-trifluoromethyl-pyridin-2-ylmethyl)-acetamide] |
| 0.006 µM | CNCCN(Cc1ncccc1C(F)(F)F)C(=O)CNc1cccc2c1CCN(C(=O)OC)C2 [compound 419, 5-({[(2-Methylamino-ethyl)-(3-trifluoromethyl-pyridin-2-ylmethyl)-carbamoyl]-methyl}-amino)-3,4-dihydro-1H-isoquinoline-2-carboxylic acid methyl ester] |
| 0.007 µM | CCNC(=O)N1CCc2c(cccc2NCC(=O)N(CCNC)Cc2ncccc2C(F)(F)F)C1 [compound 429, 5-({[(2-Methylamino-ethyl)-(3-trifluoromethyl-pyridin-2-ylmethyl)-carbamoyl]-methyl}-amino)-3,4-dihydro-1H-isoquinoline-2-carboxylic acid ethylamide] |
| 0.009 µM | CNCCN(Cc1ncccc1C(F)(F)F)C(=O)CNc1cccc2c1CCN(C(=O)NC(C)C)C2 [compound 430, 5-({[(2-Methylamino-ethyl)-(3-trifluoromethyl-pyridin-2-ylmethyl)-carbamoyl]-methyl}-amino)-3,4-dihydro-1H-isoquinoline-2-carboxylic acid isopropylamide] |
| 0.007 µM | CNCCN(Cc1ccccc1Br)C(=O)CNc1cccc2c1CCN(CC1CC1)C2 [compound 435, N-(2-Bromo-benzyl)-2-(2-cyclopropylmethyl-1,2,3,4-tetrahydro-isoquinolin-5-ylamino)-N-(2-methylamino-ethyl)-acetamide] |
| 0.009 µM | CNCCN(Cc1ncccc1Cl)C(=O)CNc1cccc2c1CCN(CC1CC1)C2 [compound 436, N-(3-Chloro-pyridin-2-ylmethyl)-2-(2-cyclopropylmethyl-1,2,3,4-tetrahydro-isoquinolin-5-ylamino)-N-(2-methylamino-ethyl)-acetamide] |
| 0.005 µM | CNCCN(Cc1ncccc1C(F)(F)F)C(=O)CNc1cccc2c1CCN(CC1CC1)C2 [compound 437, 2-(2-Cyclopropylmethyl-1,2,3,4-tetrahydro-isoquinolin-5-ylamino)-N-(2-methylamino-ethyl)-N-(3-trifluoromethyl-pyridin-2-ylmethyl)-acetamide] |
| 0.003 µM | CCNCCN(Cc1ccccc1C(F)(F)F)C(=O)CNc1cccc2c1CCN(CC1CC1)C2 [compound 439, 2-(2-Cyclopropylmethyl-1,2,3,4-tetrahydro-isoquinolin-5-ylamino)-N-(2-ethylamino-ethyl)-N-(2-trifluoromethyl-benzyl)-acetamide] |
| 0.01 µM | NCCN(Cc1ccccc1C(F)(F)F)C(=O)CNc1cccc2c1CCN(CC1CC1)C2 [compound 442, N-(2-Amino-ethyl)-2-(2-cyclopropylmethyl-1,2,3,4-tetrahydro-isoquinolin-5-ylamino)-N-(2-trifluoromethyl-benzyl)-acetamide] |
| 0.011 µM | CNCCN(Cc1ccccc1C(F)(F)F)C(=O)CNc1cccc2c1CCN(C(C)=O)C2 [compound 445, 2-(2-Acetyl-1,2,3,4-tetrahydro-isoquinolin-5-ylamino)-N-(2-methylamino-ethyl)-N-(2-trifluoromethyl-benzyl)-acetamide] |
| 0.004 µM | CNCCN(Cc1ccccc1Cl)C(=O)CNc1cccc2c1CCN(CC1CC1)C2 [compound 446, N-(2-Chloro-benzyl)-2-(2-cyclopropylmethyl-1,2,3,4-tetrahydro-isoquinolin-5-ylamino)-N-(2-methylamino-ethyl)-acetamide] |

— US9920010B2, “CXCR7 receptor modulators” (IDORSIA PHARMACEUTICALS LTD, priority 2013, dated 2018)
